Source: patent US6403589B1, “Method of treating pain with draflazine-analogues” (Janssen Pharmaceutica N.V., priority 1997, dated 2002)

Assays:
[1] = test system: patients with unstable angina; conditions: during the 24 hour observation period; draflazine treated patients with unstable angina; cited from earlier work
rabbits = conditions: acute pain stimulus; cited from earlier work
dogs = conditions: acute pain stimulus; cited from earlier work
mice = conditions: acute pain stimulus; cited from earlier work

CNC(=O)C1CN(CC(=O)Nc2c(Cl)cccc2C(C)=O)CCN1CCCC=C(c1ccc(F)cc1)c1ccc(F)cc1.O=C(O)C(=O)O.O=C(O)C(=O)O (racemic) [Compound 18, (±)-N-(2-acetyl-6-chlorophenyl)-4-[5,5-bis(4-fluorophenyl)-4-pentenyl]-3-[(methylamino)carbonyl]-1-piperazineacetamide ethanedioate (1:2)]
melting point: 140 °C

CNC(=O)C1CN(CC(=O)Nc2c(C)cc(C)cc2C)CCN1CCCC(c1ccc(F)cc1)c1ccc(F)cc1 (stereo not shown) [Compound 1, 4-[4,4-bis(4-fluorophenyl)butyl]-3-[(methylamino)-carbonyl]-N-(2,4,6-trimethylphenyl)-1-piperazineacetamide]
melting point: 82.3 °C

CNC(=O)C1CN(CCCC(c2ccc(F)cc2)c2ccc(F)cc2)CCN1CC(=O)Nc1c(C)cc(C)cc1C (stereo not shown) [Compound 2, 4-[4,4-bis(4-fluorophenyl)butyl]-2-[(methylamino)carbonyl]-N-(2,4,6-trimethylphenyl)-1-piperazineacetamide]
melting point: 90.2 °C

NC(=O)[C@@H]1CN(CCCCC(c2ccc(F)cc2)c2ccc(F)cc2)CCN1CC(=O)Nc1c(Cl)cc(N)cc1Cl [Compound 13, S-(−)-2-(aminocarbonyl)-N-(4-amino-2,6-dichlorophenyl)-4-[5,5-bis(4-fluorophenyl)-pentyl]-1-piperazineacetamide]
mean duration of chest pain [1]: 75.5 min

Cc1cccc(C)c1NC(=O)CN1CCN(CCCC(c2ccc(F)cc2)c2ccc(F)cc2)CC1 [lidoflazine]
pain treshold to electrical stimulation of incisor teeth (rabbits): increased | pain treshold to electrical stimulation of canine teeth (dogs): not | reaction time to thermal stimulation (mice): significantly increased
